Usually solubility stands for the dissolved amount per volume that the medium holds. The IC50 is the concentration needed to halve the response being measured.

Drawing on patent USRE47302E1 (ONYX THERAPEUTICS INC., priority 2013, dated 2019), this text covers solubility and IC50 for 15 compounds.

Converted amounts (≈) assume the structure as drawn.

The nature of data set [1]: Solubility pH 7. As to conditions: pH 7, aqueous buffer.
The target in data set [2] is human constitutive 20S proteasome (c20S) (Homo sapiens, UniProt P28074). The data set can be described thus: 20S proteasome assay, chymotrypsin-like activity (succinyl-Leu-Leu-Val-Tyr-AMC), c20S. As to conditions: LLVY substrate, 1 h continuous. The format is biochemical. The text has this: (§1) Assay buffer consisted of TE buffer [20 mmol/L Tris (pH 8.0), 0.5 mmol/L EDTA] with (20S) or without (cell lysate) 0.03% SDS. Reactions were initiated by enzyme or lysate addition and monitored for AMC product formation at 27jC with a plate-based spectofluorometer (Tecan).

Data set [3] addresses T1, proteasome subunit β5 (beta5) (Homo sapiens, UniProt P28074).
T1 construct: Lysate from the human acute lymphoblastic leukemia cell line, MOLT-4; endogenous in cells; host or cells: MOLT-4
As to the kind of experiment: Proteasome active-site ELISA (ProCISE), beta5, MOLT-4 lysate. It is filed as biochemical. Particulars: MOLT4 lysate, human, 1 h continuous treatment, 25° C. Put shortly:
(§2)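 MOLT-4 cell lysate treated 1 h at 25 °C with compound; probe-bound subunits denatured, pulled down on streptavidin beads and detected with subunit-specific antibodies plus HRP chemiluminescence.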
For orientation: ELISA stands for enzyme-linked immunosorbent assay.

Data set [4] has as its target human 20S immunoproteasome (i20S) (Homo sapiens, UniProt P28062). The data set can be described thus: 20S proteasome assay, chymotrypsin-like activity (succinyl-Leu-Leu-Val-Tyr-AMC), i20S. The format is biochemical. As to conditions: LLVY substrate, 1 h continuous.
Description: as §1

The target in data set [5] is T2, immunoproteasome subunit LMP7 (Homo sapiens, UniProt P28062).
T2 construct: Lysate from the human acute lymphoblastic leukemia cell line, MOLT-4; endogenous in cells; host or cells: MOLT-4
As to the kind of experiment: Proteasome active-site ELISA (ProCISE), LMP7, MOLT-4 lysate. Particulars: MOLT4 lysate, 1 h continuous treatment, 25° C. It is filed as biochemical. The gist of the method:
as §2

`COc1ccc(C[C@H](NC(=O)[C@@H](C)NC(=O)[C@@H]2CCCOC2)C(=O)N[C@@H](CC2CCCC2)C(=O)[C@@]2(C)CO2)cc1` [Compound C-1052, (R)-N-((R)-1-(((S)-1-(((S)-3-cyclopentyl-1-((R)-2-methyloxiran-2-yl)-1-oxopropan-2-yl)amino)-3-(4-methoxyphenyl)-1-oxopropan-2-yl)amino)-1-oxopropan-2-yl)tetrahydro-2H-pyran-3-carboxamide]: the solubility in data set [1] turned out to be 706 µg/mL (≈ 1270 µM). In addition, the IC50 in data set [2] stood at 515 nM; in data set [3], 512 nM; in data set [4] it was 44.5 nM; in data set [5], 101 nM.
Compound `COc1ccc(C[C@H](NC(=O)[C@@H](C)NC(=O)[C@H]2CCCOC2)C(=O)N[C@@H](CC2CCCC2)C(=O)[C@@]2(C)CO2)cc1` [Compound C-1053, (S)-N-((R)-1-(((S)-1-(((S)-3-cyclopentyl-1-((R)-2-methyloxiran-2-yl)-1-oxopropan-2-yl)amino)-3-(4-methoxyphenyl)-1-oxopropan-2-yl)amino)-1-oxopropan-2-yl)tetrahydro-2H-pyran-3-carboxamide] gave a solubility in data set [1] of 648 µg/mL (≈ 1160 µM). Also, the IC50 in data set [2] came to 3770 nM; in data set [3], 4540 nM; in data set [4], 98.9 nM; in data set [5], 270 nM.
Compound `C[C@H](NC(=O)CN1CCOCC1)C(=O)N[C@@H](Cc1ccc(S(N)(=O)=O)cc1)C(=O)N[C@@H](CC1CCCC1)C(=O)[C@@]1(C)CO1` [Compound C-1054, (S)-N-((S)-3-cyclopentyl-1-((R)-2-methyloxiran-2-yl)-1-oxopropan-2-yl)-2-((S)-2-(2-morpholinoacetamido)propanamido)-3-(4-sulfamoylphenyl)propanamide] returned a solubility in data set [1] of 2860 µg/mL (≈ 4600 µM). Besides, the IC50 in data set [2] turned out to be 667 nM; in data set [3] it was 805 nM; in data set [4] it was 76.5 nM; in data set [5] it was 131 nM.
In the same order, the values of `COc1ccc(C[C@H](NC(=O)[C@@H](C)NC(=O)C2COC2)C(=O)N[C@@H](CC2=CCCC2)C(=O)[C@@]2(C)CO2)cc1` [Compound C-1055, N-((R)-1-(((S)-1-(((S)-3-(cyclopent-1-en-1-yl)-1-((R)-2-methyloxiran-2-yl)-1-oxopropan-2-yl)amino)-3-(4-methoxyphenyl)-1-oxopropan-2-yl)amino)-1-oxopropan-2-yl)oxetane-3-carboxamide] are 1300 µg/mL (≈ 2460 µM), 4440 nM, 7150 nM, 149 nM and 953 nM.
For `COc1ccc(C[C@H](NC(=O)[C@@H](C)NC(=O)[C@H]2CC[C@@H](O)CC2)C(=O)N[C@@H](CC2=CCCC2)C(=O)[C@@]2(C)CO2)cc1` [Compound C-1056, (1s,4S)-N-((R)-1-(((S)-1-(((S)-3-(cyclopent-1-en-1-yl)-1-((R)-2-methyloxiran-2-yl)-1-oxopropan-2-yl)amino)-3-(4-methoxyphenyl)-1-oxopropan-2-yl)amino)-1-oxopropan-2-yl)-4-hydroxycyclohexanecarboxamide], the concentration in solution in data set [1] (solubility) came to 298 µg/mL (≈ 523 µM). For the same compound, the IC50 in data set [2] worked out at 46.8 nM; in data set [3], 17.4 nM; in data set [4] it was 4.7 nM; in data set [5], 2.72 nM.
On the same counts, the results for `COc1ccc(C[C@H](NC(=O)[C@@H](C)NC(=O)[C@H]2CC[C@H](O)CC2)C(=O)N[C@@H](CC2=CCCC2)C(=O)[C@@]2(C)CO2)cc1` [Compound C-1057, (1r,4R)-N-((R)-1-(((S)-1-(((S)-3-(cyclopent-1-en-1-yl)-1-((R)-2-methyloxiran-2-yl)-1-oxopropan-2-yl)amino)-3-(4-methoxyphenyl)-1-oxopropan-2-yl)amino)-1-oxopropan-2-yl)-4-hydroxycyclohexanecarboxamide] are 491 µg/mL (≈ 862 µM), 595 nM, 2550 nM, 5.3 nM and 34 nM.
For the compound `COc1ccc(C[C@H](NC(=O)[C@@H](C)NC(=O)C2CCOCC2)C(=O)N[C@@H](CC2CCCC2)C(=O)[C@@]2(C)CO2)cc1O` [Compound C-1061, N-((R)-1-(((S)-1-(((S)-3-cyclopentyl-1-((R)-2-methyloxiran-2-yl)-1-oxopropan-2-yl)amino)-3-(3-hydroxy-4-methoxyphenyl)-1-oxopropan-2-yl)amino)-1-oxopropan-2-yl)tetrahydro-2H-pyran-4-carboxamide], in data set [1], the solubility worked out at 2050 µg/mL (≈ 3580 µM). Moreover, the IC50 in data set [2] was 756 nM; in data set [3], 978 nM; in data set [4] it was 15.4 nM; in data set [5], 70.8 nM.
For `COc1ccc(C[C@H](NC(=O)[C@@H](C)NC(=O)C2CCOCC2)C(=O)N[C@@H](CC2=CCCC2)C(=O)[C@@]2(C)CO2)cc1O` [Compound C-1062, N-((R)-1-(((S)-1-(((S)-3-(cyclopent-1-en-1-yl)-1-((R)-2-methyloxiran-2-yl)-1-oxopropan-2-yl)amino)-3-(3-hydroxy-4-methoxyphenyl)-1-oxopropan-2-yl)amino)-1-oxopropan-2-yl)tetrahydro-2H-pyran-4-carboxamide], the concentration in solution in data set [1] (solubility) was 140 µg/mL (≈ 245 µM). Further, the IC50 was 232 nM in data set [2], 388 nM in data set [3], 20.2 nM in data set [4] and 38.4 nM in data set [5].
In the same order, the values of `COc1ccc(C[C@H](NC(=O)[C@@H](C)NC(=O)C2CC3(COC3)C2)C(=O)N[C@@H](CC2=CCCC2)C(=O)[C@@]2(C)CO2)cc1` [Compound C-1063, N-((R)-1-(((S)-1-(((S)-3-(cyclopent-1-en-1-yl)-1-((R)-2-methyloxiran-2-yl)-1-oxopropan-2-yl)amino)-3-(4-methoxyphenyl)-1-oxopropan-2-yl)amino)-1-oxopropan-2-yl)-2-oxaspiro[3.3]heptane-6-carboxamide] are 1310 µg/mL (≈ 2310 µM), 169 nM, 443 nM, 14.9 nM and 90.7 nM.
In the same order, the values of `COc1ccc(C[C@H](NC(=O)CNC(=O)CN2CCOCC2)C(=O)N[C@@H](Cc2ccccc2)C(=O)[C@@]2(C)CO2)cc1` [Compound C-1153, (S)-3-(4-methoxyphenyl)-N-((S)-1-((R)-2-methyloxiran-2-yl)-1-oxo-3-phenylpropan-2-yl)-2-(2-(2-morpholinoacetamido)acetamido)propanamide] are 3270 µg/mL (≈ 5780 µM), 2430 nM, 4170 nM, 278 nM and 208 nM.
On the same counts, the results for `COc1ccc(C[C@H](NC(=O)[C@H](CO)NC(=O)CN2CCOCC2)C(=O)N[C@@H](Cc2ccccc2)C(=O)[C@@]2(C)CO2)cc1` [Compound C-1159, (S)-3-hydroxy-N-((S)-3-(4-methoxyphenyl)-1-(((S)-1-((R)-2-methyloxiran-2-yl)-1-oxo-3-phenylpropan-2-yl)amino)-1-oxopropan-2-yl)-2-(2-morpholinoacetamido)propanamide] are 1910 µg/mL (≈ 3210 µM), 473 nM, 454 nM, 43 nM and 43.1 nM.
In data set [1], `COc1ccc(C[C@H](NC(=O)[C@H](C)NC(=O)CN2CCOCC2)C(=O)N[C@@H](Cc2ccccc2)C(=O)[C@@]2(C)CO2)cc1OC` [Compound C-1160, (S)-3-(3,4-dimethoxyphenyl)-N-((S)-1-((R)-2-methyloxiran-2-yl)-1-oxo-3-phenylpropan-2-yl)-2-((S)-2-(2-morpholinoacetamido)propanamido)propanamide] returned a solubility of 1530 µg/mL (≈ 2500 µM). The IC50 was determined as 909 nM in data set [2], 660 nM in data set [3], 246 nM in data set [4] and 157 nM in data set [5].
`C[C@H](NC(=O)CN1CCOCC1)C(=O)N[C@@H](Cc1ccc(N(C)C)cc1)C(=O)N[C@@H](Cc1ccccc1)C(=O)[C@@]1(C)CO1` [Compound C-1161, (S)-3-(4-(dimethylamino)phenyl)-N-((S)-1-((R)-2-methyloxiran-2-yl)-1-oxo-3-phenylpropan-2-yl)-2-((S)-2-(2-morpholinoacetamido)propanamido)propanamide] registered a solubility in data set [1] of 2110 µg/mL (≈ 3560 µM). The IC50 was 807 nM in data set [2], 409 nM in data set [3], 146 nM in data set [4] and 51.2 nM in data set [5].
In the same order, the values of `COc1ccc(C[C@H](NC(=O)[C@H](C)NC(=O)CN2CCOCC2)C(=O)N[C@@H](Cc2ccc(O)cc2)C(=O)[C@@]2(C)CO2)cc1` [Compound C-1162, (S)-N-((S)-3-(4-hydroxyphenyl)-1-((R)-2-methyloxiran-2-yl)-1-oxopropan-2-yl)-3-(4-methoxyphenyl)-2-((S)-2-(2-morpholinoacetamido)propanamido)propanamide] are 1270 µg/mL (≈ 2130 µM), 1610 nM, 595 nM, 27.9 nM and 43.4 nM.
On the same counts, the results for `COc1ccc(C[C@H](NC(=O)[C@@H](NC(=O)CN2CCOCC2)[C@H](C)O)C(=O)N[C@@H](Cc2ccccc2)C(=O)[C@@]2(C)CO2)cc1` [Compound C-1174] are 1780 µg/mL (≈ 2920 µM), 161 nM, 150 nM, 23 nM and 22.9 nM.
